Reference: article PMC3428523, “Phase I study of the Aurora B kinase inhibitor barasertib (AZD1152) to assess the pharmacokinetics, metabolism and excretion in patients with acute myeloid leukemia” (Cancer Chemotherapy and Pharmacology, 2012)
Like-named read-outs stand apart in the source and are kept apart here. Marks after values point to notes of the source that are not given here. One block for each compound: values may come before it.

Columns and labels:
[1] = Metabolite profiling of plasma, urine and feces by HPLC-RAD / HPLC-MSn; type: in vivo, human
Experimental: Samples of blood, urine and feces were collected prior to study treatment and at various time points during Cycle 1. […] A urine sample was collected within the 24-hour period prior to barasertib-SOI; feces samples within this 24-hour period were also collected. A urine sample was collected within the 24-hour period following barasertib-SOI.
Barasertib and barasertib-hQPA concentrations in plasma and urine were measured using liquid chromatography tandem mass spectrometry following solid-phase extraction (plasma) or dilution (urine). Plasma measurements were determined by an independent bioanalytical facility (PRA International—Early Development Services, Assen, The Netherlands). […] Radioactivity in weighed aliquots of plasma, urine, feces, whole blood and dose material was determined by liquid scintillation counting (LSC). Radioactivity concentrations in plasma and whole blood, and percentage dose excreted in urine and feces samples were calculated using LabLogic Debra 5TM (version 5.4.10.51). […] Extracts were concentrated to dryness and reconstituted in water/acetonitrile (95:5 v/v). […] The two extracts were combined, concentrated to dryness and reconstituted in water/acetonitrile (95:5 v/v). […] The first two 5 % formic acid/acetonitrile extracts were combined, concentrated to a small volume and reconstituted in water/acetonitrile (95:5 v/v). Metabolite profiling was determined using high-performance liquid chromatography–radiometric (HPLC-RAD) methodology, with metabolites identified by HPLC coupled with mass spectrometry (HPLC-MSn).

[2] = Plasma pharmacokinetics of barasertib and barasertib-hQPA (LC-MS/MS), 7-day continuous infusion in patients with AML; type: in vivo, human; conditions: for Time by which maximal plasma concentration was achieved: from start of infusion, first scheduled sample
Experimental: (§1) This was an open-label, single-arm, single-center, Phase I study. Patients received barasertib 1,200 mg as a 7-day continuous intravenous infusion every 28 days. On Day 2 of Cycle 1 only, patients also received [^14C]-barasertib (250 μCi), administered as a 2-hour infusion. Based on preclinical studies in rat and dog, it was expected that an adequate recovery of total radioactivity, and thus comprehensive metabolite profiling, would be achieved following the administration of the specified [^14C]-barasertib regimen (data on file). On the completion of the [^14C]-barasertib infusion, administration of non-radiolabeled barasertib resumed for the remainder of the 7-day infusion period. Following Cycle 1, each patient could receive subsequent treatment cycles until disease progression or any other discontinuation criteria were met. For Cycle 1, patients remained as in-patients for up to 9 days following the start of the 7-day barasertib infusion (7 days of dosing plus 2 additional days for observation). For all subsequent cycles, patients were hospitalized for the infusion period only.
(§2) Samples of blood, urine and feces were collected prior to study treatment and at various time points during Cycle 1. Blood samples were collected approximately 30 min prior to start of infusion (SOI) on Day 1 (barasertib) and Day 2 ([^14C]-barasertib), and then every 24 h until Day 10 (216 h) and on Days 14 and 18 (312 and 408 h, respectively). In addition, samples were collected on Day 2: 1 h following the start of the [^14C]-barasertib infusion ([^14C]-SOI), 5 min prior to the end of [^14C]-barasertib infusion ([^14C]-EOI), and at 15 min, 1, 2, 4 and 8 h following [^14C]-EOI; and on Day 8: 5 min prior to the end of the barasertib infusion (EOI), and at 15 min, 1, 2, 4, 6 and 10 h following EOI. A urine sample was collected within the 24-hour period prior to barasertib-SOI; feces samples within this 24-hour period were also collected. A urine sample was collected within the 24-hour period following barasertib-SOI. Further, urine and feces samples were collected within 24-hour periods following [^14C]-SOI: 0–24, 24–48, 48–72, 72–96, 96–120, 120–144, 144–168 and 168–192 h.
(§3) Barasertib and barasertib-hQPA concentrations in plasma and urine were measured using liquid chromatography tandem mass spectrometry following solid-phase extraction (plasma) or dilution (urine). Plasma measurements were determined by an independent bioanalytical facility (PRA International—Early Development Services, Assen, The Netherlands). The lower limit of quantification (LLOQ) was 0.25 ng/mL for plasma samples and 1.00 μg/mL for urine samples. Radioactivity in weighed aliquots of plasma, urine, feces, whole blood and dose material was determined by liquid scintillation counting (LSC). Radioactivity concentrations in plasma and whole blood, and percentage dose excreted in urine and feces samples were calculated using LabLogic Debra 5TM (version 5.4.10.51). For metabolite profiling, plasma samples that were collected 5 min prior to [^14C]-EOI for each patient were prepared using 5 % formic acid in acetonitrile; extraction efficiencies were all >91 %. Extracts were concentrated to dryness and reconstituted in water/acetonitrile (95:5 v/v). Pooled urine samples were freeze-dried and then reconstituted in methanol (duplicate extracts); extraction efficiencies were all >94 %. The two extracts were combined, concentrated to dryness and reconstituted in water/acetonitrile (95:5 v/v). Pooled feces samples were extracted with hexane followed by 3 × 5 % formic acid in acetonitrile; extraction efficiencies ranged from 86 to 98 %. The first two 5 % formic acid/acetonitrile extracts were combined, concentrated to a small volume and reconstituted in water/acetonitrile (95:5 v/v). Metabolite profiling was determined using high-performance liquid chromatography–radiometric (HPLC-RAD) methodology, with metabolites identified by HPLC coupled with mass spectrometry (HPLC-MSn).

[3] = Urine pharmacokinetics of barasertib and barasertib-hQPA (LC-MS/MS) in patients with AML; type: in vivo, human
Experimental: as §1, §2
as §3, with “Pooled urine samples were freeze-dried and then reconstituted in methanol (duplicate extracts); extraction efficiencies were all >94 %. The two extracts were combined, concentrated to dryness and reconstituted in water/acetonitrile (95:5 v/v). Pooled feces samples were extracted with hexane followed by 3 × 5 % formic acid in acetonitrile; extraction efficiencies ranged from 86 to 98 %. The first two 5 % formic acid/acetonitrile extracts were combined, concentrated to a small volume and reconstituted in water/acetonitrile (95:5 v/v).” left out

patients with AML [4] = assay: Safety: adverse events graded by CTCAE version 3.0; type: in vivo, human
Experimental: (§4) Efficacy was assessed according to the International Working Group for AML trials criteria. Adverse events (AEs) were graded according to the National Cancer Institute Common Terminology Criteria for Adverse Events (CTCAE), version 3.0 [19].

patients with AML [5] = assay: Efficacy: response by International Working Group AML criteria; type: in vivo, human
Experimental: The primary objective was to assess the PK, metabolism and excretion profiles of barasertib and barasertib-hQPA following a single 7-day intravenous infusion, including a short infusion of [^14C]-barasertib, to patients with AML. Secondary objectives were to assess the safety and tolerability of barasertib and to evaluate preliminary efficacy by measurement of individual patient response (based on the International Working Group AML clinical response criteria).
as §4

patients with AML [6] = system: patients with AML; parameters: method as in PMID 21976672, PMID 21565405; conditions: Phase I studies, Japanese and Western patients with AML; cited from earlier work
AML patients = conditions: Phase I/II dose-escalation study; cited from earlier work
[7] = excreta (urine and feces), % of administered dose
[8] = plasma collected 5 min prior to [14C]-EOI, % of chromatogram radioactivity
[9] = human, plasma, iv, 1200 mg, plasma, n=4, barasertib 1,200 mg 7-day continuous i.v. infusion, geometric mean (coefficient of variation), read-out: AUC(0–t)
[10] = plasma, n=4, barasertib 1,200 mg 7-day continuous i.v. infusion, geometric mean (coefficient of variation)
[11] = urine, n=5, arithmetic mean (standard deviation)
[12] = Grade 3, barasertib 1,200 mg, n = 5
[13] = all grades, any cause, barasertib 1,200 mg, n = 5
[14] = all grades, barasertib 1,200 mg, n = 5

Compound: CCN(CCO)CCCOc1ccc2c(Nc3cc(CC(=O)O)[nH]n3)ncnc2c1 [Barasertib-hQPA desfluoroaniline]
Retrieved radioactivity (%), range [1, 7]: 1.60–5.48%
Retrieved radioactivity (%), range [1, 8]: 2.05^e %

Geometric mean plasma concentration of barasertib-hQPA relative to barasertib ([2]; during the infusion period): approximately threefold
Time by which maximal plasma concentration was achieved [2]: ≤ 24 h
Difference between volumes of distribution (apparent) at steady state versus terminal phase ([2]; human, in vivo): fourfold
clearance ([2]; human, intravenous, 1200 mg, plasma, n=4, arithmetic mean (standard deviation), read-out: CL, total clearance (converted)): 523 mL/min
half-life ([2]; human, intravenous, 1200 mg, plasma, n=4, arithmetic mean (standard deviation), read-out: t½, terminal half-life (converted)): 66.3 h
k el ([2]; human, intravenous, 1200 mg, plasma, n=4, arithmetic mean (standard deviation), read-out: λZ, slowest disposition rate constant (converted)): 5.56e-06 s⁻¹
AUC ([2]; human, iv, 1200 mg, plasma, n=4, barasertib 1,200 mg 7-day continuous i.v. infusion, geometric mean (coefficient of variation)): 40400 ng·h/mL
Vd ([2]; human, plasma, intravenous, 1200 mg, plasma, n=4, arithmetic mean (standard deviation), read-out: VSS, volume of distribution (apparent) at steady state): 669 L
Vd ([2]; human, plasma, intravenous, 1200 mg, plasma, n=4, arithmetic mean (standard deviation), read-out: VZ, volume of distribution (apparent) during terminal (λZ) phase): 2800 L
concentration at 408 h ([2]; human, plasma, intravenous, 1200 mg, 408 h (Day 18), read-out: Plasma concentration at final sampling point): ~4 ng/mL
AUC(0-t) ([2]; human, plasma, iv, 1200 mg, plasma, n=4, barasertib 1,200 mg 7-day continuous i.v. infusion, geometric mean (coefficient of variation), read-out: AUC(0–192 h)): 38200 ng·h/mL
AUC(0-t) [2, 9]: 40100 ng·h/mL
CSS, steady-state drug concentration [2, 10]: 226.8 (0.4) ng/mL
Plasma concentration as fraction of the plasma steady-state concentration ([2]; within 2 h post-EOI, rapid initial phase): one-third
Geometric mean urine concentration ([3]; during the infusion period): 4 to 5 µg/mL
CL renal ([3]; human, urine and plasma, intravenous, 1200 mg, urine, n=5, arithmetic mean (standard deviation), read-out: CLR, renal clearance of drug from plasma (converted)): 47.5 mL/min
fe, fraction of drug excreted into urine [3, 11]: 8.1 (3.9) %
Retrieved radioactivity (%), range [1, 7]: 13.15–33.70%
Retrieved radioactivity (%), range ([1]; excreta (urine and feces), % of administered dose, listed as barasertib-hQPA): 13.2–33.7%
Retrieved radioactivity (%), range [1, 8]: 48.27–56.61%
Compound: CCN(CCO)CCCOc1ccc2c(Nc3cc(CC(=O)Nc4cccc(F)c4)[nH]n3)ncnc2c1 [Barasertib-hQPA, barasertib-hydroxyquinazoline-pyrazol-aniline]
Ae, cumulative amount of unchanged drug excreted [3, 11]: 96.9 (47.2) mg

Compound: CCN(CCCOc1ccc2c(Nc3cc(CC(=O)Nc4cccc(F)c4)n[nH]3)ncnc2c1)CCOP(=O)(O)O [Barasertib]
Time after end of infusion at which plasma concentration reached the LLOQ ([2]; LLOQ 0.25 ng/mL plasma): ≤ 6 h
Time by which maximal plasma concentration was achieved [2]: ≤ 24 h
AUC(0-t) [2, 9]: 13800 ng·h/mL
CSS, steady-state drug concentration [2, 10]: 85.6 (0.5) ng/mL
Urine concentration ([3]; all time points, LLOQ 1.00 μg/mL urine): below LLOQ
Retrieved radioactivity (%), range [1, 8]: 17.26–26.53%
Febrile neutropenia, number of patients (patients with AML [4]; [12]): 2
Hypocalcemia, number of patients (patients with AML [4]; [12]): 1
Hypomagnesemia, number of patients (patients with AML [4]; [12]): 1
Stomatitis, number of patients (patients with AML [4]; [12]): 2
Febrile neutropenia, number of patients (patients with AML [4]; Grade 4, barasertib 1,200 mg, n = 5): 1
Nausea, number of patients (patients with AML [4]; [13]): 4
Stomatitis, number of patients (patients with AML [4]; [13]): 4
Alopecia, number of patients (patients with AML [4]; [14]): 3
Constipation, number of patients (patients with AML [4]; [14]): 2
Decreased appetite, number of patients (patients with AML [4]; [14]): 2
Diarrhea, number of patients (patients with AML [4]; [14]): 2
Fatigue, number of patients (patients with AML [4]; [14]): 2
Febrile neutropenia, number of patients (patients with AML [4]; [14]): 3
Headache, number of patients (patients with AML [4]; [14]): 2
Hypocalcemia, number of patients (patients with AML [4]; [14]): 3
Hypomagnesemia, number of patients (patients with AML [4]; [14]): 2
Oral candidiasis, number of patients (patients with AML [4]; [14]): 2
Peripheral edema, number of patients (patients with AML [4]; [14]): 2
Vomiting, number of patients (patients with AML [4]; [14]): 3
Patients who had died due to an AE (patients with AML [4]; at data cutoff, grade 5 multi-organ failure, considered unrelated to study treatment): one
Changes in vital signs or ECG measurements (patients with AML [4]; barasertib 1,200 mg, n = 5): no clinically relevant changes
Patients who experienced grade ≥3 AEs (patients with AML [4]; barasertib 1,200 mg, n = 5): three
Patients with no response (patients with AML [5]; four patients evaluable for response): three
Patients achieving complete response / complete remission (patients with AML [5]; four patients evaluable for response, barasertib 1,200 mg 7-day infusion every 28 days): One
Duration of complete response (patients with AML [5]; one patient): ~ 6 months
Response rates (patients with AML [6]): 19–25%
Maximum tolerated dose (MTD) (AML patients): 1,200 mg

Compound: Barasertib-hQPA N-oxide
Retrieved radioactivity (%), range [1, 7]: 0.21–2.96%
